# From US11433013B2, “Peptide for preventing skin damage caused by air pollutants and for anti-aging, and use thereof” (CAREGEN CO., LTD., priority 2019, dated 2022)
# No end group written: not given here.
# Test system: CYP1A1
# Assay: CYP1A1 gene expression by RT-PCR, HaCaT cells treated with pollutants
# Assay type: cell-based, human
# Procedure: In order to confirm an effect of inhibiting inflow of pollutants into the cells via another method, the cells were treated with TCDD, PM, and CSE, and expression levels of CYP1A1 and COX-2 were confirmed. When the activity of AhR is promoted by the pollutants such as TCDD, the AhR acts as a transcription factor and increases expressions of CYP1A1 and COX-2, and thus a degree of the inflow of the pollutants into the cells and whether the AhR is activated or not may be confirmed by measuring expression levels of CYP1A1 and COX-2 genes. TCDD, PM, and CSE were each used after mixing it with the peptide of the present invention and pre-reacting the mixture on a serum-free media for about 1 hour.
# In order to confirm the results of the cells treated with TCDD, first, 78 passages of HaCaT cells were seeded in a 6-well plate at a cell density of 3×10^5/well and cultured for about 16 hours, and then, the culture solution was replaced with a serum-free media, and the resultant was treated with the pre-reacted mixture of TCDD and the peptide for about 2 hours. The treatment included TCDD at a concentration of about 0.1 μM and the peptide at concentrations of about 10 μM, about 50 μM, and about 100 μM, respectively. The negative control was not treated with the peptide but only treated with TCDD, and the positive control was treated with CH223191 at a concentration of about 10 μM and TCDD. The cells were reacted with the mixture for about 2 hours, and RNA was isolated from the resultant. After removing the culture solution, the plate on which the cells were cultured was treated with TRIzol (available from Thermo Fisher Scientific, USA), and a sample including RNA was obtained using a scraper. Then, the sample was treated with chloroform and centrifuged to obtain a supernatant. The supernatant was treated with isopropanol, centrifuged again, and RNA pellets at the bottom were confirmed. Next, the resultant was treated with 70% of ethanol to wash the pellets, and the pellets were sufficiently dried to isolate RNA. […]
sequence,measurement,setting,value
"SYSGVLFFLK [SEQ ID NO: 1, SYSGVLFFLK]",expression level of CYP1A1,"CSE about 2%, peptide about 10, 50, 100 μM, about 2 hours (FIG. 2C)",decreased as a concentration of the peptide increased
same,expression level of CYP1A1,"PM about 25 μg/cm^2, peptide about 10, 50, 100 μM, about 2 hours (FIG. 2B)",decreased as a concentration of the peptide increased
same,expression level of CYP1A1,"TCDD about 0.1 μM, peptide about 10, 50, 100 μM, about 2 hours (FIG. 2A)",decreased as a concentration of the peptide increased
